Drawing on patent publication US20250129078A1, “ERBB2 INHIBITORS” (Cogent Biosciences, Inc., priority 2023, published 2025), this text covers IC50 for 17 compounds.

Where a name gives a salt, the structure may show the parent alone. Some results are limits rather than exact numbers.

For one experiment, the target named is ErbB2 V777L (Homo sapiens (Human), UniProt P04626, V777L). Description: ErbB enzyme assay (CisBio HTRF-KinEASE-TK), ErbB2 V777L. The experiment is classed as biochemical. Put shortly: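 HTRF KinEASE-TK tyrosine-kinase read-out of substrate phosphorylation after a final 1 h at ambient temperature, from the 655/620 nm emission ratio.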
A further experiment concerns the target EGFR wild type (Homo sapiens (Human), UniProt P00533). Nature of the experiment: ErbB cellular phosphorylation assay (phospho-EGFR ELISA), HEK-293 cells expressing EGFR wild type, EGF stimulated. Type of experiment: cell-based. The settings on record: 1 h treatment. The protocol:
(§1) HEK-293 cells were engineered to constitutively express ErbB2 mutant L755S or EGFR wild type (constructs obtained from GenScript, Piscataway, NJ). Cells were seeded in poly-D-lysine coated, 96-well plates at a density of 50,000 cells/well in complete medium (DMEM supplemented with 10% fetal bovine serum and G418) and incubated for 24 h at 37° C., 5% CO2 prior to treatment. Cells were treated with compound using three-fold dilutions at final concentrations ranging from […] for 1 h at 37° C., 5% CO2. EGFR-WT cells were stimulated with 500 ng/mL recombinant human EGF (R&D Systems, 236-EG) for an additional 5 min. After compound incubation, medium was removed from the plate, and cells were lysed in buffer containing protease and phosphatase inhibitors ([…]). Cell lysates were analyzed by enzyme-linked immunosorbent assay (ELISA). The ELISAs were performed to measure phosphorylated ErbB2 or phosphorylated EGFR levels, respectively (R&D Systems, DYC-1768, Human Phospho-ErbB2 DuoSet ELISA; DYC1095, Human Phospho-EGFR DuoSet IC ELISA) according to the manufacturer's instructions. Absorbance was measured at 450 nm using a BioTek Cytation 5 plate reader (Agilent, Santa Clara, CA) and IC50 values were calculated using a 4-parameter fit.

For the next experiment, the target named is ErbB2 mutant L755S (Homo sapiens (Human), UniProt P04626, L755S). Description: ErbB cellular phosphorylation assay (phospho-ErbB2 ELISA), HEK-293 cells expressing ErbB2 L755S. The experiment is classed as cell-based. The note with it: 1 h treatment. The protocol:
as §1, with “Cells” for “HEK-293 cells were engineered to constitutively express ErbB2 mutant L755S or EGFR wild type (constructs obtained from GenScript, Piscataway, NJ). Cells”

The next experiment concerns the target EGFR WT (Homo sapiens (Human), UniProt P00533). Nature of the experiment: ErbB enzyme assay (CisBio HTRF-KinEASE-TK), EGFR WT. Type of experiment: biochemical. The settings on record: ATP at Km (25 μM), 1 h incubation. The method in brief: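 Three-fold DMSO serial dilutions were added to kinase reactions and incubated 1 h at room temperature. Quench used 62.5 nM Sa-XL665 plus 0.25×TK-Ab-Cryptate in detection buffer, followed by another 1 h. Substrate phosphorylation was then measured by dual-wavelength HTRF.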

Chain of ErbB2 mutant L755S (P04626 23-1255 L755S): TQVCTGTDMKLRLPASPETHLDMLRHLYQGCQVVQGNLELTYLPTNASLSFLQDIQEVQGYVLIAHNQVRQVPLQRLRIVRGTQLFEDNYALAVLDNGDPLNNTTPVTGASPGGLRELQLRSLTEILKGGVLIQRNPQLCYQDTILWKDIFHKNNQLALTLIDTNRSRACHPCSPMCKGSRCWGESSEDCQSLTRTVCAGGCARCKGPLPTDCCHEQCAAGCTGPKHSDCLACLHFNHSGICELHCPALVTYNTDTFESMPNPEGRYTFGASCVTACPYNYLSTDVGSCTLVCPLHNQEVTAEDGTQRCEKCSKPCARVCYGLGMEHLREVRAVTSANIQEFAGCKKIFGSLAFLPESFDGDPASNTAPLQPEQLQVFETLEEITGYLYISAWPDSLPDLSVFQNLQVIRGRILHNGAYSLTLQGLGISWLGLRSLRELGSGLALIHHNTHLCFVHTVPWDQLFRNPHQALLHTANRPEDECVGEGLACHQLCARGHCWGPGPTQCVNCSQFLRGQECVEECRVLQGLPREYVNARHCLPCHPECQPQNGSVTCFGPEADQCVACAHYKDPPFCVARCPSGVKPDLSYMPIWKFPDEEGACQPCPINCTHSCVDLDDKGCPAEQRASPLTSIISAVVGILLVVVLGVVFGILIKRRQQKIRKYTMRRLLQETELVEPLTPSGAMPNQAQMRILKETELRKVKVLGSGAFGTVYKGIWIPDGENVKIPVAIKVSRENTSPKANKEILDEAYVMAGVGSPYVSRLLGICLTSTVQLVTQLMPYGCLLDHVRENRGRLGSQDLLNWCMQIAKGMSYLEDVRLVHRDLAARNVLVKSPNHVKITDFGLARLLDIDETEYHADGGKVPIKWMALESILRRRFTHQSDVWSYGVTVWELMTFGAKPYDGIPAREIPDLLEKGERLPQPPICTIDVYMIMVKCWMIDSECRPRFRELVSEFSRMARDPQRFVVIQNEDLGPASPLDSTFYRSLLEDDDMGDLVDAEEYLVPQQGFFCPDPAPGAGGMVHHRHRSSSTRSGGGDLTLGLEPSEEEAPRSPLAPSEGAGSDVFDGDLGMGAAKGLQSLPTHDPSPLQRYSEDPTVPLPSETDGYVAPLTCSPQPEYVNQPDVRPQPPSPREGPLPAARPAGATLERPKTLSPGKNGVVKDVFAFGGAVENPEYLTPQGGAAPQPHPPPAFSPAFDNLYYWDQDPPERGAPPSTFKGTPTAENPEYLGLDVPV
Chain of ErbB2 V777L (P04626 23-1255 V777L): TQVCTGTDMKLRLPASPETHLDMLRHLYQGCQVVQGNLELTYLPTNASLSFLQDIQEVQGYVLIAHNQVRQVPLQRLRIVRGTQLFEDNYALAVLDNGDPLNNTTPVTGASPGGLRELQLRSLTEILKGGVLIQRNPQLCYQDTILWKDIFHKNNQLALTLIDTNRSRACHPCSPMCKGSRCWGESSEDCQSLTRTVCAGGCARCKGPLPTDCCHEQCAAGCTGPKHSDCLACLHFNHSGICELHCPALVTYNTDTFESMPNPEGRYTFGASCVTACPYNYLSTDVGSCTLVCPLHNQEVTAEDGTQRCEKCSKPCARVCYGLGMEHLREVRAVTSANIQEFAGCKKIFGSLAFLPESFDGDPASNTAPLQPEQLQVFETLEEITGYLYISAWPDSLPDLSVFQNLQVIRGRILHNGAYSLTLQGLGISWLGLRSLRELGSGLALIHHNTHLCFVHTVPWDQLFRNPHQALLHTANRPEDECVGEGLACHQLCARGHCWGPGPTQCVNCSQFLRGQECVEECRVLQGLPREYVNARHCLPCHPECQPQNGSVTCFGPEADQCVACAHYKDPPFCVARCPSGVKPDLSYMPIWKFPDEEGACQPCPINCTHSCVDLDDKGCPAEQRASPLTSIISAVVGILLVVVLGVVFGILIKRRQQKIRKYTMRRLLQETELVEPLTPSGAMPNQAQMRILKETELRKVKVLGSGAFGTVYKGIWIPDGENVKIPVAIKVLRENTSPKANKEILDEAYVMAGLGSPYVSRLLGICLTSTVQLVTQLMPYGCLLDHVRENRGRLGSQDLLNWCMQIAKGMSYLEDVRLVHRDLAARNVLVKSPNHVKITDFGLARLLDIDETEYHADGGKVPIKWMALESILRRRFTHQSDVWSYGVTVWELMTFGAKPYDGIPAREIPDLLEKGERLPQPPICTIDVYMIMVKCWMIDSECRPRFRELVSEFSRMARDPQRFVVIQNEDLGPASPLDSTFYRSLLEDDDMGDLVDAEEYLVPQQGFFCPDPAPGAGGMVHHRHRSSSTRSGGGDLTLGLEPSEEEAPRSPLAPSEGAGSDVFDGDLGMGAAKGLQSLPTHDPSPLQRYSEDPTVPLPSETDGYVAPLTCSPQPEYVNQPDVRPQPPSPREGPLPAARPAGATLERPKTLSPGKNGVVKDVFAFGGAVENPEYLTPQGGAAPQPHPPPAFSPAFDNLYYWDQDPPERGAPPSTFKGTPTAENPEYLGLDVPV
Chain of EGFR WT (P00533 25-1210): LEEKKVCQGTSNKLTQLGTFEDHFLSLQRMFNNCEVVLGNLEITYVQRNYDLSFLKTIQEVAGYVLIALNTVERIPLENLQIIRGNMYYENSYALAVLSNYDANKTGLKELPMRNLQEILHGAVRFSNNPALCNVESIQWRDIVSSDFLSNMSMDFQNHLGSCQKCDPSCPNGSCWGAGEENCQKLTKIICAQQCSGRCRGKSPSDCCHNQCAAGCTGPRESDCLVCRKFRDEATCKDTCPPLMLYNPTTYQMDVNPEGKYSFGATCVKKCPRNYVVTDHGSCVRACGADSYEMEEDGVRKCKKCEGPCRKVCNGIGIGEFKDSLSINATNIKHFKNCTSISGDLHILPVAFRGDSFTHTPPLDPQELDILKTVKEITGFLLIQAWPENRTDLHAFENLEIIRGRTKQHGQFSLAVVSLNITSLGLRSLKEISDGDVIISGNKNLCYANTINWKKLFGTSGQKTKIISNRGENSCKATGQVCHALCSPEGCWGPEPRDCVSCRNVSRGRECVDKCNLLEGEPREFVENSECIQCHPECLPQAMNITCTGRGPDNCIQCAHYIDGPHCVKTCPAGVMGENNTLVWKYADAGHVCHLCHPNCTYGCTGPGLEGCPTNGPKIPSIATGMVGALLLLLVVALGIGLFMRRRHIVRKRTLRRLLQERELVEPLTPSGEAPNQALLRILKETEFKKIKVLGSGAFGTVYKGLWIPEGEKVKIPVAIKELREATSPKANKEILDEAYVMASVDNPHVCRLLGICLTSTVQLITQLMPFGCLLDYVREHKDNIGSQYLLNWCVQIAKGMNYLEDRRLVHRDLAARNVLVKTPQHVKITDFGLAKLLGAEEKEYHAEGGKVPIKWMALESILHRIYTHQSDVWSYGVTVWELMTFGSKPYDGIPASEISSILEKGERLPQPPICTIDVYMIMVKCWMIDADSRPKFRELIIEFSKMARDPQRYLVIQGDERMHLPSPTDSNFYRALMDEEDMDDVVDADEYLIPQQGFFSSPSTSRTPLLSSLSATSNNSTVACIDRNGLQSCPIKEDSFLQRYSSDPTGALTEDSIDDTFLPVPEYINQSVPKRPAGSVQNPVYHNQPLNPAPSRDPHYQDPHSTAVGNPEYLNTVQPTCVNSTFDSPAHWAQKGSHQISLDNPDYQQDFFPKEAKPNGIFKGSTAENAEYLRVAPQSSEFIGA
Chain of EGFR wild type (P00533 25-1210): as above

As to `C=CC(=O)N1CCN(c2ncc3ncnc(Nc4cc(C)c(Oc5ccc6c(c5)ncn6C(F)F)cc4OC)c3n2)C[C@H]1C` [Compound 39, (R)-1-(4-(8-((4-((1-(difluoromethyl)-1H-benzo[d]imidazol-5-yl)oxy)-2-methoxy-5-methylphenyl)amino)pyrimido[5,4-d]pyrimidin-2-y1)-2-methylpiperazin-1-yl)prop-2-en-1-one], the IC50 on ErbB2 V777L was 0.1 to 0.5 µM; against EGFR wild type, no less than 5 µM; at ErbB2 mutant L755S, 0.1 to 0.5 µM; at EGFR WT, 0.5 to 1 µM.

On to `C=CC(=O)N1CCN(c2ncc3ncnc(Nc4cc(C)c(Oc5ccc6c(c5)ncn6C)cc4OC)c3n2)CC1` [Compound 11, 1-(4-(8-((2-methoxy-5-methyl-4-((1-methyl-1H-benzo[d]imidazol-5-yl)oxy)phenyl)amino)pyrimido[5,4-d]pyrimidin-2-yl)piperazin-1-yl)prop-2-en-1-one 2,2,2-trifluoroacetate], for which the IC50 was no less than 5 µM against EGFR wild type and 0.1 to 0.5 µM on EGFR WT.

Regarding `C=CC(=O)N1CCC(Sc2ncc3ncnc(Nc4ccc(Oc5ccc6c(c5)ncn6C)c(C)c4F)c3n2)CC1` [Compound 107, 1-(4-((8-((2-fluoro-3-methyl-4-((1-methyl-1H-benzo[d]imidazol-5-yl)oxy)phenyl)amino)pyrimido[5,4-d]pyrimidin-2-yl)thio)piperidin-1-yl)prop-2-en-1-one], the IC50 against ErbB2 V777L was 0.05 to 0.1 µM; against EGFR wild type, no less than 5 µM; against ErbB2 mutant L755S, 0.1 to 0.5 µM.

For `C=CC(=O)N1CCN(c2ncc3ncnc(Nc4ccc(Oc5ccc6c(c5)nnn6C)c(C)c4)c3n2)CC1(C)C` [Compound 3, 1-(2,2-dimethyl-4-(8-((3-methyl-4-((1-methyl-1H-benzo[d][1,2,3]triazol-5-yl)oxy)phenyl)amino)pyrimido[5,4-d]pyrimidin-2-yl)piperazin-1-yl)prop-2-en-1-one], the IC50 against ErbB2 V777L is 0.05 to 0.1 µM; against EGFR wild type, no less than 5 µM; on ErbB2 mutant L755S, 0.1 to 0.5 µM; against EGFR WT, 0.1 to 0.5 µM.

For the compound `C=CC(=O)N1C2CCC1CN(c1ncc3ncnc(Nc4cc(C)c(Oc5cc(F)c6c(c5)ncn6C)cc4OC)c3n1)C2` [Compound 42, 1-(3-(8-((4-((7-fluoro-1-methyl-1H-benzo[d]imidazol-5-yl)oxy)-2-methoxy-5-methylphenyl)amino)pyrimido[5,4-d]pyrimidin-2-y1)-3,8-diazabicyclo[3.2.1]octan-8-yl)prop-2-en-1-one], the IC50 is no less than 5 µM at EGFR wild type and 0.1 to 0.5 µM against EGFR WT.

With `C=CC(=O)N1CCN(c2ccc3ncnc(Nc4ccc(Oc5ccc6c(c5)nnn6C)c(C)c4F)c3n2)CC1` [Compound 95, 1-(4-(4-((2-fluoro-3-methyl-4-((1-methyl-1H-benzo[d][1,2,3]triazol-5-yl)oxy)phenyl)amino)pyrido[3,2-d]pyrimidin-6-yl)piperazin-1-yl)prop-2-en-1-one], the IC50 on EGFR wild type was no less than 5 µM; on EGFR WT, less than 0.05 µM.

In the case of `C=CC(=O)N1CCN(c2ncc3ncnc(Nc4ccc(Oc5ccc6c(c5)ncn6C(F)F)c(C)c4F)c3n2)CC1` [Compound 21, 1-(4-(8-((4-((1-(difluoromethyl)-1H-benzo[d]imidazol-5-y1)oxy)-2-fluoro-3-methylphenyl)amino)pyrimido[5,4-d]pyrimidin-2-yl)piperazin-1-yl)prop-2-en-1-one], the IC50 was 1 to 5 µM at EGFR wild type and less than 0.05 µM against EGFR WT.

With `C=CC(=O)N1CCN(c2ncc3ncnc(Nc4ccc(Oc5cc(F)c6c(c5)nnn6C)c(C)c4F)c3n2)C[C@H]1C` [Compound 49, (R)-1-(4-(8-((2-fluoro-4-((7-fluoro-1-methyl-1H-benzo[d][1,2,3]triazol-5-yl)oxy)-3-methylphenyl)amino)pyrimido[5,4-d]pyrimidin-2-yl)-2-methylpiperazin-1-yl)prop-2-en-1-one], the IC50 is 0.1 to 0.5 µM against ErbB2 V777L, no less than 5 µM at EGFR wild type, 0.1 to 0.5 µM on ErbB2 mutant L755S and less than 0.05 µM on EGFR WT.

`C=CC(=O)N1CCN(c2ccc3ncnc(Nc4ccc(Oc5ccc6c(c5)nnn6C)c(C)c4)c3n2)[C@@H](C)C1` [Compound 90, (S)-1-(3-methyl-4-(4-((3-methyl-4-((1-methyl-H-benzo[d][1,2,3]triazol-5-yl)oxy)phenyl)amino)pyrido[3,2-d]pyrimidin-6-yl)piperazin-1-yl)prop-2-en-1-one 2,2,2-trifluoroacetate]: the IC50 against EGFR wild type is no less than 5 µM; at EGFR WT it was 0.1 to 0.5 µM.

In the case of `C=CC(=O)N1CCN(c2ncc3ncnc(Nc4ccc(Oc5ccc6c(c5)nnn6C)c(C)c4)c3n2)C[C@@H]1CO` [Compound 25, (R)-1-(2-(hydroxymethyl)-4-(8-((3-methyl-4-((1-methyl-1H-benzo[d][1,2,3]triazol-5-yl)oxy)phenyl)amino)pyrimido[5,4-d]pyrimidin-2-y1)piperazin-1-yl)prop-2-en-1-one], the IC50 is no less than 5 µM against EGFR wild type and 0.1 to 0.5 µM on EGFR WT.

Regarding `C=CC(=O)N1CCC2(C1)CN(c1ncc3ncnc(Nc4ccc(Oc5ccc6c(c5)nnn6C)c(C)c4)c3n1)C2` [Compound 15, 1-(2-(8-((3-methyl-4-((1-methyl-1H-benzo[d][1,2,3]triazol-5-yl)oxy)phenyl)amino)pyrimido[5,4-d]pyrimidin-2-yl)-2,6-diazaspiro[3.4]octan-6-yl)prop-2-en-1-one], the IC50 against ErbB2 V777L is 0.5 to 1 µM; against EGFR wild type, no less than 5 µM; on ErbB2 mutant L755S, 0.5 to 1 µM; at EGFR WT, no less than 1 µM.

For the compound `C=CC(=O)N1CCN(c2ncc3ncnc(Nc4ccc(Oc5cc(F)c6c(c5)nnn6C)c(C)c4)c3n2)CC1` [Compound 4, 1-(4-(8-((4-((7-fluoro-1-methyl-1H-benzo[d][1,2,3]triazol-5-yl)oxy)-3-methylphenyl)amino)pyrimido[5,4-d]pyrimidin-2-yl)piperazin-1-yl)prop-2-en-1-one], the IC50 was 1 to 5 µM at EGFR wild type and less than 0.05 µM against EGFR WT.

For `C=CC(=O)N1CCN(c2ncc3ncnc(Nc4ccc(Oc5ccn6ncnc6c5)c(C)c4F)c3c2F)CC1` [Compound 101, 1-(4-(4-((4-([1,2,4]triazolo[1,5-a]pyridin-7-yloxy)-2-fluoro-3-methylphenyl)amino)-5-fluoropyrido[3,4-d]pyrimidin-6-yl)piperazin-1-yl)prop-2-en-1-one], the IC50 on ErbB2 V777L was 0.1 to 0.5 µM; at EGFR wild type, no less than 5 µM; on ErbB2 mutant L755S, 0.1 to 0.5 µM; on EGFR WT, 0.1 to 0.5 µM.

On to `C=CC(=O)N1CC=C(c2ccc3ncnc(Nc4ccc(Oc5ccc6c(c5)nnn6C)c(C)c4)c3n2)CC1` [Compound 109, 1-(4-(4-((3-methyl-4-((1-methyl-1H-benzo[d][1,2,3]triazol-5-yl)oxy)phenyl)amino)pyrido[3,2-d]pyrimidin-6-yl)-3,6-dihydropyridin-1(2H)-yl)prop-2-en-1-one trifluoroacetate], for which the IC50 on EGFR wild type was no less than 5 µM; against EGFR WT, 0.1 to 0.5 µM.

For `C=CC(=O)N1CCN(c2ncc3ncnc(Nc4ccc(Oc5ccc6c(c5)nnn6C)c(C)c4)c3c2OC)CC1` [Compound 105], the IC50 at ErbB2 V777L is 0.1 to 0.5 µM; at EGFR wild type, no less than 5 µM; against ErbB2 mutant L755S it was 0.1 to 0.5 µM; on EGFR WT, 0.5 to 1 µM.

`C=CC(=O)N1C2CCC1CN(c1ccc3ncnc(Nc4ccc(Oc5ccc6c(c5)nnn6C)c(C)c4)c3n1)C2` [Compound 70, 1-(3-(4-((3-methyl-4-((1-methyl-1H-benzo[d][1,2,3]triazol-5-yl)oxy)phenyl)amino)pyrido[3,2-d]pyrimidin-6-yl)-3,8-diazabicyclo[3.2.1]octan-8-yl)prop-2-en-1-one]: the values for the IC50 at EGFR wild type and against EGFR WT were 1 to 5 µM and 0.1 to 0.5 µM, respectively.

Take `C=CC(=O)N1CC=C(c2ccc3ncnc(Nc4ccc(Oc5ccc6c(c5)nnn6C)c(C)c4)c3n2)C1` [Compound 110, 1-(3-(4-((3-methyl-4-((1-methyl-1H-benzo[d][1,2,3]triazol-5-yl)oxy)phenyl)amino)pyrido[3,2-d]pyrimidin-6-yl)-2,5-dihydro-1H-pyrrol-1-yl)prop-2-en-1-one]: the IC50 against EGFR wild type is no less than 5 µM; on EGFR WT, 0.05 to 0.1 µM.
